Measured values reported in US9586963B2 (GENFIT, priority 2011, dated 2017).
Counter-ions that a name gives are not always drawn.

Target: T1, Rev-Erb alpha (Homo sapiens, UniProt P20393)
T1 sequence (P20393 284-614 limits assumed): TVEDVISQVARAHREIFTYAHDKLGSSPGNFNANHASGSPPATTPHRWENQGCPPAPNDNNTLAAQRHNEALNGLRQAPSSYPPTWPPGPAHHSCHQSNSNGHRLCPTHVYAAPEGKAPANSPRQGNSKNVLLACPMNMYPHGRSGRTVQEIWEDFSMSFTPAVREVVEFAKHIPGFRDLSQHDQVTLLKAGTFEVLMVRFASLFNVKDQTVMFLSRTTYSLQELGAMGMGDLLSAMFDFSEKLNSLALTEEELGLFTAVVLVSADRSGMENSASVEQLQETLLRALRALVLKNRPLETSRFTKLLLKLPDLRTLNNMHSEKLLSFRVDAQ
Test: M2H (mammalian two-hybrid) cellular activation assay of Rev-Erb alpha
Assay type: cell-based
Conditions: M2H assay, HEK293 cells; for EC50: Gal4-Rev-Erb alpha / VP16-NCoR, luciferase reporter; for Emax: relative to DMSO, at the tested dose, read-out: TOP activation
Procedure: In this system, Rev-Erb alpha or Rev-Erb beta is expressed as a fusion to the Gal4 DNA-binding domain and the cofactor NCoR is expressed as a fusion to the activation domain of the Herpes Simplex Virus tegument protein VP16. These fusion proteins were included in plasmids at a concentration of 1 μg/μL. The pBS-SK+ vector was added to the preparation to adjust the DNA quantity to a fixed value for each condition.
The transfection mix (Jet-PEI protocol, Polyplus transfection) comprised: • 3 mL of Jet PEI Mix (180 μL Jet-Pei and NaCl at 150 mM) and • 3 mL of the DNA Mix or of the DNA Mix control (wherein the Gal4-Rev-Erb alpha plasmid was replaced by a pGal4phi plasmid).
DNA Mix comprised 1.2 mL of DNA and 1.8 mL of NaCl at 150 mM with, in a T225 flask: • 90 ng of Gal4-Rev-Erb alpha, or 90 ng of Gal4-Rev-Erb beta, • 4500 ng of VP16-NCoR, • 27000 ng of Gal4-RE and • 13410 ng of pBS-SK+. Cells
HEK293 cells were cultured in DMEM (Invitrogen 41965) comprising 10% FBS, P/S, 1% glutamine, 1% pyruvate (Invitrogen 11360) and 1% amino acids (Invitrogen 11140). Cells were then batch co-transfected with plasmid vectors (described in the table above) using as Jet-PEI as reagent (Polyplus) following the protocol specified below.
The 6 mL-transfection mix was transferred in a T225 flask. HEK293 cells were then added at a concentration of 12 Millions of cells for 54 mL of medium (DMEM comprising 10% FBS and 1% P/S). Cells incubated over-night at 37° C. and under 5% CO2.
This cell-based assay is performed using 384-well Greiner white plates (Reference 781080). After the incubation, cells were rinsed with PBS, trypsinized, centrifuged and resuspended in free-serum DMEM without phenol red (Invitrogen 31053). Cells were counted and adjusted to 0.5 Million per mL and plated at a concentration of 10,000 cells in 20 μL per well. They were incubated a minimum of 4 hours at 37° C. under 5% CO2. Cells were treated with 20 μL of the compound to analyze (concentration of 2× diluted in DMEM without FBS containing a maximum of 1% DMSO) and incubated over-night (18 hours, 37° C. and 5% CO2). Each compound has been tested at 6 different concentrations to depict a dose-effect allowing the measure of biochemical parameters such as EC50 and TOP activation (%).
Cells were incubated 30 minutes with 40 μL/well of Steady Glow (Promega) and luminescence was read with TECAN Genios Pro (100 ms/w). Four experiments were carried out for each compound.
Each compound has been tested at 6 different concentrations to depict a dose-effect allowing the measure of biochemical parameters such as EC50 and TOP activation (%).
The mammalian two-hybrid system (M2H) assay consists herein in studying the ability of compounds according to the invention to activate Rev-Erbalpha in cells and thus modulate the interaction with its corepressor. The interaction of the two proteins is assessed with the help of the Luciferase reporter gene. HEK293 cells were transfected with two gene constructions: Gal4-RE VP16-NCoR and Gal4-Rev-Erbalpha or with Gal4-RE, sVP16-NCoR and Gal4-Rev-Erb beta.
The ability of compounds according to the invention of activating Rev-Erbalpha alpha or Rev-Erb beta was assessed in the described cell-based assay. EC50 and TOP activation (%) were measured.

SMILES	EC50 [nM]	Emax [%]
Cc1ccc(-c2cc(F)ccc2Oc2ccc3nnc(C(F)(F)F)n3n2)cc1 [Cpd.4-142, 3-(trifluoromethyl)-6-(5-fluoro-4′-methylbiphenyl-2-yloxy)-[1,2,4]triazolo[4,3-b]pyridazine]	1000 to 6000	–
Oc1cccc(-c2cc(F)c(F)cc2Oc2ccc3nnc(Cl)n3n2)c1 [Cpd.4-153, 3-chloro-6-(4,5-difluoro-3′-hydroxybiphenyl-2-yloxy)-[1,2,4]triazolo[4,3-b]pyridazine]	1000 to 6000	–
OCc1ccc(-c2ccccc2)c(Oc2ccc3nnc(Cl)n3n2)c1 [Cpd.4-155, 3-chloro-6-(4-(hydroxymethyl)biphenyl-2-yloxy)-[1,2,4]triazolo[4,3-b]pyridazine]	1000 to 6000	–
CCN(CC)Cc1ccc(Oc2ccc3nnc(Cl)n3n2)c(-c2ccccc2)c1 [Cpd.4-157, 3-chloro-6-(5-diethylaminomethylbiphenyl-2-yloxy)-[1,2,4]triazolo[4,3-b]pyridazine]	> 6000	> 130
CN1CCN(Cc2ccc(Oc3ccc4nnc(Cl)n4n3)c(-c3ccccc3)c2)CC1 [Cpd.4-159, 3-chloro-6-(5-(4-methylpiperazin-1-ylmethyl)biphenyl-2-yloxy)-[1,2,4]triazolo[4,3-b]pyridazine]	> 6000	> 130
Clc1nnc2ccc(Oc3ccc(CNC4CCCC4)cc3-c3ccccc3)nn12 [Cpd.4-160, 3-chloro-6-(5-(cyclopentylaminomethyl)biphenyl-2-yloxy)-[1,2,4]triazolo[4,3-b]pyridazine]	1000 to 6000	–
Clc1nnc2ccc(Oc3ccc(CNCC4CCCO4)cc3-c3ccccc3)nn12 (stereo not shown) [Cpd.4-163, 3-chloro-6-(5-(tetrahydrofurfurylaminomethyl)biphenyl-2-yloxy)-[1,2,4]triazolo[4,3-b]pyridazine]	> 6000	> 130
CS(=O)(=O)N1CCN(Cc2ccc(Oc3ccc4nnc(Cl)n4n3)c(-c3ccccc3)c2)CC1 [Cpd.4-164, 3-chloro-6-(5-(4-methanesulfonyl-piperazin-1-ylmethyl)biphenyl-2-yloxy)-[1,2,4]triazolo[4,3-b]pyridazine]	1000 to 6000	–
FC(F)(F)c1ccc(-c2cccc(CNC3CC3)c2)c(Oc2ccc3nnc(Cl)n3n2)c1 [Cpd.4-168, 3-chloro-6-(4-(trifluoromethyl)-3′-(cyclopropylaminomethyl)biphenyl-2-yloxy)-[1,2,4]triazolo[4,3-b]pyridazine, hydrochloride]	1000 to 6000	–

Further lines, results first:

EC50 [nM]	Emax [%]	SMILES
1000 to 6000	–	FC(F)(F)c1cccc(Oc2ccc3nnc(Cl)n3n2)c1-c1cccnc1 [Cpd.4-129, 3-chloro-6-(2-(pyridin-3-yl)-3-(trifluoromethyl)phenoxy)-[1,2,4]triazolo[4,3-b]pyridazine]
100 to 1000	–	Cc1cccc(-c2ccccc2Oc2ccc3nnc(C(F)(F)F)n3n2)c1 [Cpd.4-133, 3-(trifluoromethyl)-6-(3′-methylbiphenyl-2-yloxy)-[1,2,4]triazolo[4,3-b]pyridazine]
1000 to 6000	–	O=[N+]([O-])c1ccc(Oc2ccc3nnc(Cl)n3n2)c(-c2ccccc2)c1 [Cpd.4-134, 3-chloro-6-(5-nitrobiphenyl-2-yloxy)-[1,2,4]triazolo[4,3-b]pyridazine]
100 to 1000	–	Cc1cccc(-c2cc(F)ccc2Oc2ccc3nnc(C(F)(F)F)n3n2)c1 [Cpd.4-136, 3-(trifluoromethyl)-6-(5-fluoro-3′-methylbiphenyl-2-yloxy)-[1,2,4]triazolo[4,3-b]pyridazine]
100 to 1000	–	Cc1ccc(-c2cc(F)ccc2Oc2ccc3nnc(Cl)n3n2)cc1 [Cpd.4-143, 3-chloro-6-(5-fluoro-4′-methylbiphenyl-2-yloxy)-[1,2,4]triazolo[4,3-b]pyridazine]
100 to 1000	–	N#Cc1ccc(-c2ccccc2)c(Oc2ccc3nnc(Cl)n3n2)c1 [Cpd.4-169, 3-chloro-6-(4-cyanobiphenyl-2-yloxy)-[1,2,4]triazolo[4,3-b]pyridazine]
100 to 1000	–	CC(C)(C)OC(=O)NCc1ccc(Oc2ccc3nnc(Cl)n3n2)c(-c2ccccc2)c1 [Cpd.4-170, 3-chloro-6-(5-(tertbutyloxycarbonylaminomethyl)biphenyl-2-yloxy)-[1,2,4]triazolo[4,3-b]pyridazine]
